Data set [1] is described as follows: Pharmacokinetics, single oral gavage administration. The class given is in vivo. Particulars: male Sprague Dawley rats, single oral gavage 10 mg/kg, N = 3/group (Cpd. 71 N = 2), formulation 10% NMP/90% PEG400 (Cpd. 57: 10% DMA/90% PEG300). On the procedure:
(§1) Groups of Balb/c mice or Sprague-Dawley rats (n≥3 per dose group) are administered single doses of test compound. Compounds are formulated either as solutions in 10% N-methylpyrrolidone, 90% polyethyleneglycol 400 or as suspensions in 0.5% methylcellulose in water for oral gavage administration at a nominal dose level of 10 mg/kg. Compounds are formulated in 10% dimethylisosorbide, 15% ethanol, 35% propylene glycol, and 40% saline (or 40% D5W) for intravenous administration at a nominal dose level of 1 mg/kg. For intravenously dosed animals, blood samples are collected at 0.083, 0.25, 0.5, 1, 2, 4, 8, and 24 h post dose. For orally dosed animals, blood samples are collected at 0.25, 0.5, 1, 2, 4, 8, and 24 h post dose. Blood samples are collected from mice either serially via submandibular vein (approximately 0.1 mL each) or terminally via cardiac puncture (approximately 0.5 mL each). Blood samples are collected serially from rats via jugular vein catheter (approximately 0.2 mL each). Each blood sample is collected into a tube that is chilled and contains potassium EDTA as the anticoagulant. Plasma is separated and stored at approximately −80 C until analysis. Following protein precipitation with acetonitrile containing an internal standard, plasma samples are analyzed using a liquid chromatography/high-resolution mass spectrometry (LC-HRMS) method to determine plasma concentrations. Plasma concentration versus time data are subjected to noncompartmental pharmacokinetic analysis using Phoenix™ Winnonlin® (Certara LP) to determine pharmacokinetic parameters, including Area Under the Curve (AUC), Clearance (Cl), Volume of Distribution at Steady-State (Vss), and terminal half-life (T1/2). Data from orally and intravenously dose are highlighted in Tables 3 and 4, respectively.

Data set [2] in a line: Pharmacokinetics, single intravenous bolus administration. Particulars: rat, plasma, male Sprague Dawley rats, single intravenous bolus 1 mg/kg, N = 3/group, formulation 10% NMP/15% EtOH/35% PEG400/40% D5W (Cpd. 57: 10% DMA/15% EtOH/35% PEG400/40% D5W). The data set is classed as in vivo. On the procedure: as §1, with “Compounds are formulated in 10% dimethylisosorbide, 15% ethanol, 35% propylene glycol, and 40% saline (or 40% D5W) for intravenous administration at a nominal dose level of 1 mg/kg.” left out

In the next data set the test system is Phosphorylated eIF4E. Nature of the data set: peIF4E Signaling Cellular Assay (CisBio peIF4E HTRF). Particulars: cells incubated with compound for 2 hrs at 37° C., 12-point curve. The class given is cell-based. On the procedure:
Phosphorylated eIF4E is assayed using the CisBio peIF4E HTRF® assay kit (CisBio, catalogue No. 64EF4PEG). Cells are plated in 96-well tissue-culture treated plate in appropriate growth medium (90 μL). Compounds (10×) are diluted using 3-fold serial dilutions in cell culture medium and added to cells. Plates are incubated for 2 hrs at 37° C. The cell supernatant is carefully removed either by aspirating supernatant or by flicking the plate. Immediately 50 μL of supplemented lysis buffer (1×) is added and incubated for at least 30 minutes at room temperature under shaking. After homogenization by pipeting up and down, 16 μL of cell lysate is transferred from the 96-well cell-culture plate to a 384-well small volume white plate. 4 μL of premixed antibody solutions (vol/vol) is prepared in the detection buffer and added. The plate is covered with a plate sealer and incubated overnight at room temperature. The fluorescence emissions at two different wavelengths are read (665 nm and 620 nm) on a Wallac Victor2. Emission ratios are converted into percent inhibitions and imported into GraphPad Prism software. […] IC50 values are determined using a nonlinear regression model available in GraphPad Prism 5.
Background: TR-FRET usually uses a lanthanide donor and a delayed reading to cut background.

A further data set deals with MNK1 (Homo sapiens (Human), UniProt Q9BUB5). Description: MNK Biochemical Enzymatic Assay (ADP-Glo), MNK1. Particulars: 10 nM recombinant MNK1, 100 μM substrate peptide, 300 μM ATP; read-out: IC50 Mnk1. On the procedure:
(§2) Compounds are screened for MNK inhibition using the ADP-Glo kinase assay kit (Promega, catalogue No. V9101). All kinase reactions are performed in Reaction Buffer E (15 mM HEPES pH7.4, 20 mM NaCl, 1 mM EGTA, 10 mM MgCl2, 0.1 mg/ml BGG, and 0.02% Tween-20). […] Final DMSO concentration in each reaction is 1%.
(§3) Kinase reactions are carried out in 96-well half-area white flat-bottom polystyrene plates in a final volume of 25 μl. MNK1/2 enzymes are pre-incubated with compound and peptide substrate for 5 minutes prior to the addition of ATP. After the addition of ATP, kinase reactions are incubated at room temperature for 40 minutes. Reactions are subsequently stopped by the addition of 25 μl of ADP-Glo Reagent and incubating for an additional 40 minutes. The final luminescent signal used for kinase activity readout is produced by the addition of 45 μl of Kinase Detection Reagent (ADP-Glo kit, Promega) and incubating for 40 minutes.
(ADP-Glo first removes unused ATP, then detects ADP through luciferase.)

A further data set concerns the target MNK2 (Homo sapiens (Human), UniProt Q9HBH9). Nature of the data set: MNK Biochemical Enzymatic Assay (ADP-Glo), MNK2. Particulars: 3 nM recombinant MNK2, 50 μM substrate peptide, 10 μM ATP. On the procedure:
as §2, §3

Data on 16 compounds can be found in patent US10112955B2, “Isoindoline, azaisoindoline, dihydroindenone and dihydroazaindenone inhibitors of Mnk1 and Mnk2” (eFFECTOR THERAPEUTICS, INC., priority 2015, dated 2018).

The term AUC(0-inf) denotes the area under the concentration-time curve extrapolated to infinity. Broadly, the Cmax is the highest concentration seen after dosing. A word on the Tmax: it is the time from dosing to the highest level. The clearance is the rate of elimination divided by the concentration. For orientation: IC50 means the concentration that inhibits the measured activity by half.

MNK1, sequence (Q9BUB5 whole entry): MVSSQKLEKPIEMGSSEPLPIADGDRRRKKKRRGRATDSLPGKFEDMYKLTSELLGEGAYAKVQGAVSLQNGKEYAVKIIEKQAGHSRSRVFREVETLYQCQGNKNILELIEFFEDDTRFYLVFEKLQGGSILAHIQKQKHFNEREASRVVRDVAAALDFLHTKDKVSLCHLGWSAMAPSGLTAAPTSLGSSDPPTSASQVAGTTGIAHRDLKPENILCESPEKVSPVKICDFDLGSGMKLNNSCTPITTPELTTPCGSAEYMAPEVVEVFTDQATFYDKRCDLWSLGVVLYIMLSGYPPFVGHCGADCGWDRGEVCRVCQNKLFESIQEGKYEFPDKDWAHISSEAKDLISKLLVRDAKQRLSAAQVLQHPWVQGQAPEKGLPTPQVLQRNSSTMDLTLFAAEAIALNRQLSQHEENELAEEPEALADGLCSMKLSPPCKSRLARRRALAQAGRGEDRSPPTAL
MNK2, sequence (Q9HBH9 whole entry): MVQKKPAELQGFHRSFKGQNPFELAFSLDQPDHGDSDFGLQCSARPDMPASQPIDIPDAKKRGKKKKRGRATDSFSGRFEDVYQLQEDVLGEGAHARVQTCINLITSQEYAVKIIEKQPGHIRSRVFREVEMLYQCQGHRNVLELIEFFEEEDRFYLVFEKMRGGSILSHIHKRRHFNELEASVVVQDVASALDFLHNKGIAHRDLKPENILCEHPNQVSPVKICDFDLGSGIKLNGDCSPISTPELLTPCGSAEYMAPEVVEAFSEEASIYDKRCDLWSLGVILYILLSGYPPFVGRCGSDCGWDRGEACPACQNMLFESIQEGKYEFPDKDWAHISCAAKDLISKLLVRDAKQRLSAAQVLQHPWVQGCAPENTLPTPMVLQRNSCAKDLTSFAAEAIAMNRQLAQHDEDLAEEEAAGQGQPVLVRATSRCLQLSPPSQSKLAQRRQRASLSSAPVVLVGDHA

In data set [1], `COc1c(N)ncnc1Nc1cc(C)c2c(n1)C1(CCCCC1)NC2=O` [Cpd. No. 72, 2′-((6-amino-5-methoxypyrimidin-4-yl)amino)-4′-methylspiro[cyclohexane-1,7′-pyrrolo[3,4-b]pyridin]-5′(6′H)-one] had an F of 24.2%. In addition, in data set [1] (rat, plasma), the AUC(0-inf) came out at 2740 ng·h/mL, the concentration peaked (Cmax) at 1380 ng/mL, the Tmax worked out at 0.667 h and the half-life was 2.75 h. For the same compound, in data set [2], the AUC(0-inf) is 1130 ng·h/mL and the clearance came out at 14.8 mL/min/kg. The half-life in data set [2] (read-out: T½ (converted)) was 8.48 h. Also, in data set [2] (read-out: Vss), the Vd worked out at 4.59 L/kg. Moreover, the 50% inhibitory concentration (IC50) in the data set with Phosphorylated eIF4E is under 50 nM.
For `CC1(C)NC(=O)c2c(Cl)cc(Nc3cc(N)ncn3)cc21` [Cpd. No. 43, 5-((6-aminopyrimidin-4-yl)amino)-7-chloro-3,3-dimethylisoindolin-1-one], the IC50 at MNK1 is under 10 nM; on MNK2, under 10 nM; in the data set on Phosphorylated eIF4E it was under 50 nM.
`CC1NC(=O)c2c(Cl)cc(Nc3ccncn3)cc21` (stereo not shown) [Cpd. No. 35, 7-chloro-3-methyl-5-(pyrimidin-4-ylamino)isoindolin-1-one]: the IC50 was under 10 nM on MNK1, under 10 nM on MNK2 and 50 to 1000 nM in the data set on Phosphorylated eIF4E.
Consider `CC1CC(=O)c2ccc(Nc3cc(NC(=O)C4CC4)ncn3)cc21` (stereo not shown) [Cpd. No. 19, N-(6-((3-methyl-1-oxo-2,3-dihydro-1H-inden-5-yl)amino)pyrimidin-4-yl)cyclopropanecarboxamide], for which the IC50 was under 10 nM at MNK1, 10 to 100 nM on MNK2 and 50 to 1000 nM with Phosphorylated eIF4E.
For the compound `CC1NC(=O)c2ccc(Nc3ccncn3)cc21` (stereo not shown) [Cpd. No. 8, 3-methyl-5-(pyrimidin-4-ylamino)isoindolin-1-one], the IC50 is 10 to 100 nM at MNK1, 10 to 100 nM at MNK2 and 1000 to 100000 nM in the data set on Phosphorylated eIF4E.
For `CC1NC(=O)c2cnc(Nc3ccnc(NC(=O)C4CC4)c3)cc21` (stereo not shown) [Cpd. No. 42, N-(4-((1-methyl-3-oxo-2,3-dihydro-1H-pyrrolo[3,4-c]pyridin-6-yl)amino)pyridin-2-yl)cyclopropanecarboxamide], the 50% inhibitory concentration (IC50) at MNK1 was under 10 nM; on MNK2, under 10 nM; with Phosphorylated eIF4E it was 1000 to 100000 nM.
Consider `CC(=O)Nc1cc(Nc2ccc3c(c2)CNC3=O)ncn1` [Cpd. No. 11, N-(6-((1-oxoisoindolin-5-yl)amino)pyrimidin-4-yl)acetamide], for which the IC50 on MNK1 was under 10 nM; on MNK2 it was 10 to 100 nM; with Phosphorylated eIF4E, 1000 to 100000 nM.
In the case of `CC1(C)NC(=O)c2c(Cl)cc(Nc3ccncn3)cc21` [Cpd. No. 36, 7-chloro-3,3-dimethyl-5-(pyrimidin-4-ylamino)isoindolin-1-one], the IC50 was under 10 nM on MNK1, under 10 nM at MNK2 and 50 to 1000 nM in the data set with Phosphorylated eIF4E.
In the case of `CC1Cc2cc(Nc3ccncn3)ccc2C(=O)N1` (stereo not shown) [Cpd. No. 23, 3-methyl-6-(pyrimidin-4-ylamino)-3,4-dihydroisoquinolin-1(2H)-one], the values for the IC50 at MNK1, at MNK2 and with Phosphorylated eIF4E were 100 to 10000 nM, 10 to 100 nM and 1000 to 100000 nM, respectively.
On the same counts, the results for `CC1CNC(=O)c2ccc(Nc3ccncn3)cc21` (stereo not shown) [Cpd. No. 22, 4-methyl-6-(pyrimidin-4-ylamino)-3,4-dihydroisoquinolin-1(2H)-one] are 100 to 10000 nM, 10 to 100 nM and 1000 to 100000 nM.
With `CC1NC(=O)c2ccc(Nc3ncnc4c3OCCN4)cc21` (stereo not shown) [Cpd. No. 38, 5-(7,8-dihydro-6H-pyrimido[5,4-b][1,4]oxazin-4-ylamino)-3-methyl-isoindolin-1-one], the IC50 at MNK1 was in the range of 10 to 100 nM; at MNK2 it was 100 to 10000 nM; in the data set on Phosphorylated eIF4E it was 1000 to 100000 nM.
On the same counts, the results for `CC(C)C1NC(=O)c2ccc(Nc3ccncn3)cc21` (stereo not shown) [Cpd. No. 13, 3-isopropyl-5-(pyrimidin-4-ylamino)isoindolin-1-one] are 10 to 100 nM, 10 to 100 nM and 1000 to 100000 nM.
As to `CC1NC(=O)c2ccc(Nc3cc(NC(=O)C4CC4)ncn3)cc21` (stereo not shown) [Cpd. No. 17, N-(6-((3-methyl-1-oxoisoindolin-5-yl)amino)pyrimidin-4-yl)cyclopropanecarboxamide], the values for the IC50 on MNK1, at MNK2 and in the data set with Phosphorylated eIF4E were under 10 nM, under 10 nM and 50 to 1000 nM, respectively.
In the case of `Cc1cc(Nc2ccncn2)cc2c1C(=O)NC2C` (stereo not shown) [Cpd. No. 33, 3,7-dimethyl-5-(pyrimidin-4-ylamino)isoindolin-1-one], the IC50 fell in the range of 10 to 100 nM at MNK1, 10 to 100 nM at MNK2 and 1000 to 100000 nM with Phosphorylated eIF4E.
On to `CC1NC(=O)c2ccc(Nc3ccnc(NC(=O)C4CC4)c3)cc21` (stereo not shown) [Cpd. No. 24, N-(4-((3-methyl-1-oxoisoindolin-5-yl)amino)pyridin-2-yl) cyclopropane carboxamide], for which the half-inhibitory concentration (IC50) is under 10 nM on MNK1, 100 to 10000 nM on MNK2 and 50 to 1000 nM in the data set with Phosphorylated eIF4E.
In the case of `O=C1NCc2cc(Nc3cc(NC(=O)C4CC4)ncn3)ccc21` [Cpd. No. 12, N-(6-((1-oxoisoindolin-5-yl)amino)pyrimidin-4-yl)cyclopropanecarboxamide], the IC50 is under 10 nM on MNK1, under 10 nM on MNK2 and 50 to 1000 nM in the data set on Phosphorylated eIF4E.
